In brackets after ≈: the same amount, converted by molar mass.
Columns and labels:
Format in all cases: cell-based
[1] = test system: methicillin resistant S. aureus ATCC 33591 (MRSA-ATCC); test: MIC assay, broth microdilution, MRSA-ATCC; details: Staphylococcus aureus; MRSA-ATCC; substance alone; at least 24 hours at 35° C.; read-out: MIC
Outline: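 MRSA ATCC 33591 in Mueller-Hinton broth, inoculum about 5×10^5 CFU/ml; compounds tested as 8 two-fold doses 512–4 μg/ml (oxacillin 64–0.5 μg/ml) from DMSO dilutions, in duplicate. Incubated at least 24 h at 35° C; MIC is lowest dose with no visible growth.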

[2] = test system: methicillin resistant S. aureus from Stanford University Hospital (MRSA-SU); test: MIC assay, broth microdilution, MRSA-SU; details: Staphylococcus aureus; MRSA-SU; substance alone; at least 24 hours at 35° C.; read-out: MIC
Outline: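 MRSA clinical isolate from Stanford University Hospital, tested in duplicate by NCCLS (2000) broth microdilution in Mueller-Hinton broth at 5×10^5 CFU/ml. Compounds were tested as two-fold dilutions at 512–4 μg/ml, with DMSO stocks, and incubated ≥24 h at 35 °C. MIC was the lowest dose with no visible growth.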

[3] = test system: methicillin resistant S. aureus from Stanford University Hospital (MRSA-SU); test: Matrix system: oxacillin plus β-lactamase inhibitor, MRSA-SU; set-up: key to growth score: 0 = no growth, 3 = growth equal to negative solvent control
Protocol: To each well of a 96 well microtiter plate was added 47.5 μl of MHB. A volume of 2.5 μl of each dilution of oxacillin was then transferred to appropriate wells containing the medium. All wells, except the sterility control wells, were then inoculated with 50 μl of a diluted cell suspension to give a final volume of 100 μl and a final cell density of 5×10^4 CFU/well. The volume in the sterility control wells was adjusted to 100 μl with MHB. A sterile pipette tip was used to mix the contents of each well (one tip was used going from the low to the high concentration in the same column). The microtiter plates were covered with the lids and were placed in large Stratagene Big Blue plates (Cat. # 400041). Four large kimwipes moistened with tap water were placed near the edges of the Stratagene plates to prevent evaporation of the medium. The microtiter plates were incubated for at least 24 hours at 35° C. The plates were then evaluated for growth in each well. Controls included: medium sterility and negative control (medium and bacteria only).
A numerical code was used to evaluate the extent of growth as indicated below. • 0: absence of growth • 1: barely visible (faint) growth • 2: fair growth but less than the negative solvent control • 3: growth is equivalent to the negative solvent control.
The lowest dose at which no visible growth is observed was determined to be the MIC value.
The effect of the four compounds of the present invention on oxacillin resistance of the MRSA strains was determined using a matrix system. The β-lactamase inhibitors were tested at 5 doses against up to eleven concentrations of oxacillin. […] A 96-well microtiter plate was used for the matrix system. The procedure was identical to that described above for the MIC determination, with the exception that both oxacillin and one each of the β-lactamase inhibitors was added, 2.5 μl each, to the wells prior to addition of the test organisms.
Matrix Study:Oxacillin and Compound FL201 with MRSA-SU
Matrix Study: Oxacillin and Compound FL202 with MRSA-SU

[4] = test system: methicillin sensitive S. aureus ATCC 25923 (MSSA); test: MIC assay, broth microdilution, MSSA; details: Staphylococcus aureus; MSSA; substance alone; at least 24 hours at 35° C.; read-out: MIC
Outline: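 Broth microdilution in Mueller-Hinton broth, duplicate, 5×10^5 CFU/ml inoculum; compounds tested at 512 to 4 μg/ml (eight twofold doses, DMSO dilutions). Incubated ≥24 h at 35 °C; growth scored visually 0–3, MIC taken as lowest dose without visible growth.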

Cc1onc(-c2ccccc2)c1C(=O)N[C@@H]1C(=O)N2[C@@H]1SC(C)(C)[C@@H]2C(=O)O [Oxacillin, reference compound]
MIC [1]: 32 µg/mL (≈ 79.7 µM)
MIC [2]: > 64 µg/mL
MIC ([3]; Staphylococcus aureus, 24 h, Table 17, oxacillin alone, F1201 0): 256 µg/mL
growth score ([3]; Table 17, oxacillin 0.064 μg/ml, F1201 0): 3
growth score ([3]; Table 17, oxacillin 0.125 μg/ml, F1201 0): 3
growth score ([3]; Table 17, oxacillin 0.25 μg/ml, F1201 0): 3
growth score ([3]; Table 17, oxacillin 0.5 μg/ml, F1201 0): 3
growth score ([3]; Table 17, oxacillin 1 μg/ml, F1201 0): 3
growth score ([3]; Table 17, oxacillin 2 μg/ml, F1201 0): 3
growth score ([3]; Table 17, oxacillin 4 μg/ml, F1201 0): 3
growth score ([3]; Table 17, oxacillin 16 μg/ml, F1201 0): 3
growth score ([3]; Table 17, oxacillin 64 μg/ml, F1201 0): 2
growth score ([3]; Table 17, oxacillin 128 μg/ml, F1201 0): 1
growth score ([3]; Table 17, oxacillin 256 μg/ml, F1201 0): 0
growth score ([3]; Table 18, oxacillin 0.064 μg/ml, F1202 0): 3
growth score ([3]; Table 18, oxacillin 0.125 μg/ml, F1202 0): 3
growth score ([3]; Table 18, oxacillin 0.25 μg/ml, F1202 0): 3
growth score ([3]; Table 18, oxacillin 0.5 μg/ml, F1202 0): 3
growth score ([3]; Table 18, oxacillin 1 μg/ml, F1202 0): 3
growth score ([3]; Table 18, oxacillin 2 μg/ml, F1202 0): 3
growth score ([3]; Table 18, oxacillin 4 μg/ml, F1202 0): 3
growth score ([3]; Table 18, oxacillin 16 μg/ml, F1202 0): 3
growth score ([3]; Table 18, oxacillin 64 μg/ml, F1202 0): 2
growth score ([3]; Table 18, oxacillin 128 μg/ml, F1202 0): 2
growth score ([3]; Table 18, oxacillin 256 μg/ml, F1202 0): 0
MIC (oxacillin) ([3]; Table 18, oxacillin alone, F1202 0): 256 µg/mL
MIC [4]: 0.25 µg/mL (≈ 0.623 µM)
